{"source": "patent US20200003756A1", "about": "“METHOD FOR OBSERVING SEBACEOUS GLAND” (MANDOM CORPORATION, priority 2017, published 2020)", "tested_on": "sebaceous-gland-structure A", "experiment": "Degree of sebum production from three-dimensional image analysis of outermost layer (Example 4)", "type": "cell-based", "settings": "linoleic acid 1×10^−4 M, 24 hours", "description": "Linoleic acid and phytic acid as test substances were added to the mixed medium obtained in Preparation Example 1 (test sample A) so that the concentration of linoleic acid was 1×10^−4M and so that the concentration of the test sample was 100 μM, to obtain a test sample E. One milliliter of the test sample A was added to each well of a 24-well plate. Text, the sebaceous-gland-structure A obtained in Preparation Example 6 was cultured in a suspended state in the test sample A contained in each well of the 24-well plate in the presence of 5% by volume carbon dioxide at 37° C. for 24 hours, to contact the sebaceous-gland-structure A with the test sample A (Experiment number 10). In addition, the sebaceous-gland-structure A was contacted with the test sample B (Experiment number 11) or the test sample E (Experiment number 12) in the same manner as in Experiment, number 10 except that in Experiment number 10, the test sample B obtained in Example 1(1) (Experiment number 11) or the test sample E obtained in Example 4(1) (Experiment number 12) was used in place of the test sample A. Each of observation samples of Experiment numbers 10 to 12 was obtained in the same manner as in Preparation Example 7 except that in Preparation Example 7, the cultured sebaceous-gland-structure A obtained in Example 4(2) (Experiment numbers 10 to 12) was used in place of the cultured sebaceous-gland-structure A obtained in Preparation Example 6. The appearance of the sebaceous-gland-structure A contained in the observation sample of each of Experiment numbers 10 to 12 obtained in Example 4(3) was observed under a confocal microscope by using image analysis software (manufactured b Bitplane AG, trade name: Imaris), thereby giving three-dimensional image of the sebaceous-gland-structure A. Next, information of the outermost layer of the sebaceous-gland-structure A was extracted from the data of the resulting three-dimensional image by using image analysis software (manufactured by Bitplane AG, trade name: Imaris). Thereafter, the whole volume of the cells present in the outermost layer was calculated from the extracted information, and thereafter the sebum droplets contained in the outermost layer were counted. Using the whole volume of the cells present in the outermost layer and the number of lipid droplets of the sebum the degree of sebum production was calculated according to Formula (I): [Degree of Sebum production]=[Number of lipid droplets of sebum]/[Whole volume of cells present in outermost layer] (I)"}
{"smiles": "CCCCC/C=C\\C/C=C\\CCCCCCCC(=O)O", "note": "[linoleic acid, Linoleic acid]", "values": [{"measurement": "sebum production-regulating action", "setting": "conclusion from FIG. 11", "value": "sebum production-promoting action"}, {"measurement": "degree of sebum production (number of lipid droplets of sebum / whole volume of cells present in outermost layer)", "setting": "test sample B, compared with test sample A not containing linoleic acid, FIG. 11", "value": "higher"}]}
